Several values for one entry are separate records, joined by “and”; a condition that tells them apart may be missing. Equal values may be shown once.
Key:
[1] = target: p38α MAPK
[2] = system: ABL1(T315I)-phosphorylated
[3] = system: ADCK3
[4] = system: AURKB
[5] = system: AXL
[6] = system: BMPR2
[7] = system: BRAF
[8] = system: BTK
[9] = system: CDK2
[10] = system: CDK7
[11] = system: ERBB2
[12] = system: GSK3B
[13] = system: IKKα
[14] = system: JAK3(JH1domain-catalytic)
[15] = system: MAPKAPK2
[16] = system: MKNK2
[17] = system: PDGFRA
[18] = system: PDGFRB
[19] = system: PDPK1
[20] = system: PIK3CG
[21] = system: PKACα
[22] = system: PLK1
[23] = system: PRKCE
[24] = system: RIOK2
[25] = system: RSK2 (Kin.Dom.1-N-terminal)
[26] = system: SNARK
[27] = system: TGFBR1
[28] = system: TYK2(JH1domain-catalytic)
[29] = system: YANK3
[30] = system: ZAP70
[31] = system: PBMCs; assay: Cytokine release from PHA-stimulated PBMCs; assay type: cell-based, human
Experimental: Human PBMCs from healthy donors were isolated from heparinized blood by density gradient centrifugation with Ficoll-Paque. The isolated cells were washed twice with PBS, resuspended in RPMI 1640 medium (Sigma-Aldrich, St. Louis, MO, USA) supplemented with 10% heat-inactivated fetal bovine serum (Gibco), 2 mM L-glutamine (Sigma-Aldrich), 100 U/mL penicillin (Sigma-Aldrich), and 100 μg/mL streptomycin (Sigma-Aldrich), and used in the assays.
Peripheral blood mononuclear cells were seeded (500,000 cells/well) in 24-well plates in 500 μL of growth medium and treated with compounds 94, 95, and neflamapimod (1, 2.5, and 5 μM) in the presence or absence of PHA (1 μg/mL) or the corresponding vehicle (0.1% DMSO). Cell-free supernatants were collected after 18 h of incubation (37 °C, 5% CO2) and stored at −80 °C until tested. Cytokine production was determined with BD Cytometric Bead Array human inflammatory cytokines kit (BD Bioscience) on an Attune NxT flow cytometer (Thermo Fisher Scientific, Waltham, MA, USA). Standard curves were generated using recombinant cytokines contained in the kit. The data were analyzed using the FlowJo (Tree Star, Inc., Ashland, OR, USA) and Prism (GraphPad Prism 6.0, GraphPad Software) software.

[32] = system: scopolamine-induced cognitive deficits in mice; assay: Novel object recognition task, scopolamine-induced amnesia; assay type: in vivo
Description: In the scopolamine model, the PA and NOR tasks were used for dose selection for further testing.
The mice had unlimited access to food and water prior to the experiment. Specified conditions for the maintenance of mice were ensured throughout the experiment, including tree bedding (Transwior, Poland) and cage enrichment (tunnels, nesting material, wooden igloos, etc.). For behavioral tests, the mice were selected randomly; each group consisted of 7–10 mice. […] The procedures for maintenance and treatment of laboratory animals were approved by the first Local Ethics Committee in Krakow (Approval No. 645/2022, 760/2023, and 829/2024 and the treatment of animals was in full accordance with ethical standards laid down in respective Polish and EU regulations (Directive 2010/63/EU).
Scopolamine hydrobromide (Sigma-Aldrich, Poland) at the dose of 1 mg/kg was used to induce learning and memory deficits. For the in vivo tests, scopolamine was prepared in distilled water (Polfa Kutno, Poland) and was administered subcutaneously (s.c.) 30 min before behavioral tests during the acquisition (training) trial of PA and NOR tasks. […] They were administered intraperitoneally (i.p.) 60 min before the acquisition trial of the PA, NOR, and MWM tasks.
The experiment was conducted in opaque black boxes with dimensions of 50 × 50 × 50 cm. The 3 day procedure consists of habituation to the test arena (without any objects) for 10 min on the first day (T0), a training trial (T1), and a testing trial (T2) separated by a 24 h intertrial interval. During T1 (familiarization trial), two identical objects (A and B) were presented in the opposite corners of the arena, approximately 5 cm from its walls. During T2 (recognition trial), one of the objects (B) was replaced by a novel object (C), so that the animals were presented with A (familiar) and C (novel) objects. Both T1 and T2 trials lasted for 10 min, and after each trial, the animals returned to their home cages. White plastic round containers (height 5 cm, diameter 5 cm) attached to the ground with double-sided tape were used as the A, B objects, and green cuboids of similar height were used as object C. The objects were stable enough so that the animals could not displace them. The sequence of presentations and the location of the objects were randomly assigned to each mouse. The animals explored the objects by looking, licking, sniffing, or touching them while sniffing, but not when leaning against, standing, or sitting on the objects. Any mouse exploring the two objects for less than 5 s within the 10 min duration of T1 or T2 was eliminated from the study. An experimenter, blind to the drug treatment, measured the exploration time of the objects.

[33] = system: LPS-treated mice; assay: Morris water maze task, LPS model of neuroinflammation; assay type: in vivo; settings: 10 mg/kg i.p.
Experimental: The compounds were administered for 10 consecutive days, and on the last 6 days of their administration, LPS was also administered intraperitoneally 5 h before the test compounds. On these 6 days, the acquisition phase of the MWM task was performed. One day later, the retention, drug-off trial of the MWM task was carried out.
In the LPS model adult male C57BL/6J mice (Animal Breeding Farm of the Faculty of Pharmacy, Jagiellonian University Medical College) of similar weight and age were used. […] The mice had unlimited access to food and water prior to the experiment. Specified conditions for the maintenance of mice were ensured throughout the experiment, including tree bedding (Transwior, Poland) and cage enrichment (tunnels, nesting material, wooden igloos, etc.). For behavioral tests, the mice were selected randomly; each group consisted of 7–10 mice. […] After in vivo tests, the animals were immediately euthanized, and their tissues were collected and stored for further ex vivo testing.
LPS (Lipopolysaccharide from Escherichia coli O111:B4, Sigma-Aldrich, Poland) was used to induce neuroinflammation in mice. […] They were administered intraperitoneally (i.p.) 60 min before the acquisition trial of the PA, NOR, and MWM tasks. […] In the rotarod, locomotor activity, and MWM tests, only one dose effective in the scopolamine model of amnesia was evaluated.
The Morris water maze is a circular, plastic, and gray-painted pool (120 cm in diameter and 60 cm in height), filled with water (up to about 48 cm below the edge to prevent an animal from jumping out), maintained at 23 ± 1 °C. The pool was divided into four equal quadrants (compass locations: NE, NW, SE, SW) by a computerized video tracking system (SMART, ver. 3.0; Panlab, Spain). An escape platform (11 cm in diameter and 47 cm in height) at a fixed location (the center of the NW quadrant, i.e., the target quadrant) was made of transparent Plexiglas, being invisible to the swimming animal, and was immersed 1 cm under the surface of water. The maze was lighted with an intensity of 45 lx. […] The time taken to reach the hidden platform (escape latency) on days 1–6 was recorded for each mouse and analyzed. Each animal was released from a different starting point and was allowed to swim for 60 s. […] On the seventh day (a drug-off trial conducted 24 h after the last training trial), the platform was removed from the pool, and a probe trial was performed (without drug treatmentassessment of memory retention).

[34] = target: hBChE (Homo sapiens, UniProt P06276); assay: biochemical
Chain of hBChE (P06276 29-602): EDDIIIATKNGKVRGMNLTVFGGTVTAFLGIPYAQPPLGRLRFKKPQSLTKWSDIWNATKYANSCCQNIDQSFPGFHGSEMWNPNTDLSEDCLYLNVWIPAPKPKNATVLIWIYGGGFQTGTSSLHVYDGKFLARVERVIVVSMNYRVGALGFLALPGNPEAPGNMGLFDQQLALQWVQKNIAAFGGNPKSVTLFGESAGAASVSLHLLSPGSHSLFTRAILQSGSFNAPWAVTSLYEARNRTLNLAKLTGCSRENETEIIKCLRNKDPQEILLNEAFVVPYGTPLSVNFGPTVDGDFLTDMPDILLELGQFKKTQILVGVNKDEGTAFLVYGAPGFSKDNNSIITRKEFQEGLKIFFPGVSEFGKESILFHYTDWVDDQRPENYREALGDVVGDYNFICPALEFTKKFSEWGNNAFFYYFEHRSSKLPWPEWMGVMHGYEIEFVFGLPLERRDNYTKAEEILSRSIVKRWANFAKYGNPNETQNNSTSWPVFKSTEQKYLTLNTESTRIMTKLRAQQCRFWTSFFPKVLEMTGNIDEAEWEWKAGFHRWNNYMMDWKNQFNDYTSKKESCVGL
Experimental: The inhibitory potencies of the compounds against the ChEs were determined using the method of Ellman. […] The final content of DMSO was always 1% [v/v]. […] The initial velocities in the presence (v i ) and absence (v 0) of the test compounds were calculated. The inhibitory potencies were expressed as the residual activities, according to RA = (v i – b)/(v 0 – b), where b is the blank value using phosphate buffer without ChEs. For IC50 determinations, at least seven different concentrations for each compound were used. The IC50 values were obtained by plotting the residual ChE activities against the applied inhibitor concentrations, with the experimental data fitted to a four-parameter logistic function (GraphPad Prism 10.0).

[35] = system: mice (locomotor activity); assay: Locomotor activity test; settings: 10 mg/kg i.p.
Description: The mice had unlimited access to food and water prior to the experiment. Specified conditions for the maintenance of mice were ensured throughout the experiment, including tree bedding (Transwior, Poland) and cage enrichment (tunnels, nesting material, wooden igloos, etc.). For behavioral tests, the mice were selected randomly; each group consisted of 7–10 mice. […] After in vivo tests, the animals were immediately euthanized, and their tissues were collected and stored for further ex vivo testing.
They were administered intraperitoneally (i.p.) 60 min before the acquisition trial of the PA, NOR, and MWM tasks.
The locomotor activity test was performed using activity cages (40 cm × 40 cm × 30 cm, supplied with IR beam emitters) (Activity Cage 7441, Ugo Basile, Italy) connected to a counter for the recording of light-beam interrupts. […] The animals’ movements (i.e., the number of light-beam crossings) were counted during the next 60 min of the test. Before the experiment, the mice were habituated to activity cages for 15 min.

[36] = Pharmacokinetic study in mice
Experimental: In this study, male CD-1 mice weighing 27–34 g housed in conditions of constant temperature with a 12:12 h light-dark cycle with free access to food and water were used. Both tested and reference compounds were suspended in 1% Tween in water for injection (Polpharma, Poland) and administered intraperitoneally (i.p.). The mice were sacrificed by decapitation under isoflurane anesthesia at different time points following compound administration. Brains were harvested at the same time points. Blood was allowed to clot at room temperature for 20 min, and serum was separated by centrifugation at 8 000g (Eppendorf MiniSpin centrifuge, Germany) for 10 min. All samples were stored at −80 °C until analysis.
The analytical workflow employed a Sciex QTRAP 4500 triple quadrupole mass spectrometer interfaced with an Exion LC AC HPLC system (Danaher Corporation, USA). Chromatographic separation was achieved on an XBridge C18 column (3 × 50 mm, 5 μm; Waters, USA), utilizing a mobile phase composed of acetonitrile and water both containing 0.1% formic acid. The column temperature was maintained at 40 °C, and a gradient elution protocol (Table S10) was implemented to ensure optimal analyte resolution and retention times. Mass spectrometric detection was conducted in unit resolution mode, with ion transitions specified in Table S11. […] Valsartan served as the internal standard and was monitored at m/z 436 → 207 (collision energy = 42 eV). Positive electrospray ionization (ESI+) was employed to enhance detection sensitivity. Ion path parameters (Table S11) were optimized via direct infusion of analyte solutions (7 μL/min) using a syringe pump. The optimized source conditions included an ion spray voltage of 5500 V, a source temperature of 450 °C, curtain gas pressure at 20 psi, and medium collision gas pressure. […] No significant matrix effects or stability concerns were observed during routine sample analysis. Data acquisition and processing were carried out using Analyst software version 1.7.
Serial dilutions were performed to generate working solutions ranging from 0.01 to 20 μg/mL, corresponding to final calibration concentrations of 0.001–2 μg/mL. For calibration curve construction, 5 μL of each working solution was spiked into 45 μL of the relevant biological matrix (serum or brain homogenate) and vortexed for 10 s. Sample preparation involved protein precipitation, in a 1:3 (v/v) ratio, using acetonitrile containing 0.1% formic acid and the internal standard. The mixtures were agitated for 10 min using an IKA Vibrax VXR shaker (Germany), followed by centrifugation at 8000 × g for 5 min (Eppendorf miniSpin, Germany). The resulting supernatants were transferred to chromatographic vials for analysis.
Brain tissues were homogenized in distilled water at a 1:4 (w/v) ratio using an ULTRA-TURRAX T10 basic homogenizer (IKA, Germany). Aliquots of brain homogenate or serum (50 μL) were subjected to protein precipitation in a 1:3 (v/v) ratio with acetonitrile containing 0.1% formic acid and the internal standard. The mixtures were agitated for 10 min using an IKA Vibrax VXR shaker (Germany), followed by centrifugation at 8000 × g for 5 min (Eppendorf miniSpin, Germany). The resulting supernatants were directly transferred to chromatographic vials for analysis. In cases where analyte concentrations in serum exceeded 20 μg/mL, samples were diluted with blank matrix prior to the deproteinization step. The autosampler was maintained at 15 °C, and a 1 μL aliquot was injected onto the analytical column.
Pharmacokinetic parameters were estimated using the noncompartmental analysis (NCA). The maximum concentration (C max) and the time to reach maximum concentration (t max) in serum and brain were obtained directly from the concentration versus time data.

[37] = male, CD-1, mouse, brain, ip, 10 mg/kg
[38] = male, CD-1, mouse, serum, ip, 10 mg/kg

CN(C)CCNC(=O)c1cc2c(cnn2CC2CCCCC2)cc1Cc1ccc(F)cc1F [Compound 95, 1-(Cyclohexylmethyl)-5-(2,4-difluorobenzyl)-N-(2-(dimethylamino)ethyl)-1H-indazole-6-carboxamide]
IC50 [1]: 191 nM and 87 ng/mL
RA @ 1000nM [2]: 72%
RA @ 10000nM [2]: 91%
RA @ 1000nM [3]: 100%
RA @ 10000nM [3]: 81%
RA @ 1000nM [4]: 99%
RA @ 10000nM [4]: 71%
RA @ 1000nM [5]: 84%
RA @ 10000nM [5]: 83%
RA @ 1000nM [6]: 89%
RA @ 10000nM [6]: 92%
RA @ 1000nM [7]: 100%
RA @ 10000nM [7]: 100%
RA @ 1000nM [8]: 100%
RA @ 10000nM [8]: 100%
RA @ 1000nM [9]: 99%
RA @ 10000nM [9]: 100%
RA @ 1000nM [10]: 88%
RA @ 10000nM [10]: 77%
RA @ 1000nM [11]: 84%
RA @ 10000nM [11]: 78%
RA @ 1000nM [12]: 100%
RA @ 10000nM [12]: 80%
RA @ 1000nM [13]: 92%
RA @ 10000nM [13]: 75%
RA @ 1000nM [14]: 100%
RA @ 10000nM [14]: 100%
RA @ 1000nM [15]: 100%
RA @ 10000nM [15]: 100%
RA @ 1000nM [16]: 81%
RA @ 10000nM [16]: 67%
RA @ 1000nM [17]: 92%
RA @ 10000nM [17]: 92%
RA @ 1000nM [18]: 100%
RA @ 10000nM [18]: 96%
RA @ 1000nM [19]: 100%
RA @ 10000nM [19]: 87%
RA @ 1000nM [20]: 92%
RA @ 10000nM [20]: 97%
RA @ 1000nM [21]: 100%
RA @ 10000nM [21]: 94%
RA @ 1000nM [22]: 100%
RA @ 10000nM [22]: 100%
RA @ 1000nM [23]: 79%
RA @ 10000nM [23]: 76%
RA @ 1000nM [24]: 88%
RA @ 10000nM [24]: 81%
RA @ 1000nM [25]: 94%
RA @ 10000nM [25]: 94%
RA @ 1000nM [26]: 93%
RA @ 10000nM [26]: 92%
RA @ 1000nM [27]: 100%
RA @ 10000nM [27]: 100%
RA @ 1000nM [28]: 89%
RA @ 10000nM [28]: 75%
RA @ 1000nM [29]: 100%
RA @ 10000nM [29]: 100%
RA @ 1000nM [30]: 100%
RA @ 10000nM [30]: 100%
production of IL-12 [31]: increased, albeit at a low level
production of pro-inflammatory cytokines IL-8, IL-1β, IL-6, IL-10, and TNF-α ([31]; 1, 2.5, and 5 μM, 18 h): significantly inhibited
efficacy in NOR task ([32]; 5 mg/kg i.p., scopolamine model): statistically ineffective
preference for the novel object (NOR task) ([32]; 10 mg/kg i.p., vs mice treated with scopolamine alone): statistically significant preference for the novel object
escape latency, acquisition phase (days 1–6) of MWM ([33]; from day 2 (94) or day 3 (95) to day 6, vs LPS alone): statistically significant decrease in escape latency
latency to NW zone entry (MWM day 7, drug-off) ([33]; vs LPS-treated control, p < 0.05): statistically significant difference
Pe ± SEM (BBB-PAMPA, pH 7.4, n = 2 novel compounds, n = 3 reference drugs): 13.2 ± 1.1 ×10–6 cm/s
CNS (+/–) (predicted BBB permeation from Pe): CNS+ (CNS+ indicates high predicted BBB permeation [Pe (×10–6 cm/s) > 4.0])
IC50 ([34]; hBChE IC50 ± SEM, two independent experiments, each in triplicate): 772 ± 57 nM
IC50 ([34]; in vitro hBChE IC50, IC50 expressed as concentration in ng/mL): 770 nM
motor adverse effects (locomotor activity test) [35]: no motor adverse effects
AUC0‑∞ ([36]; brain, 10 mg/kg i.p., mice): 51082.15 ng·min/mL(g)
AUC0–t ([36]; brain, 10 mg/kg i.p., mice): 49811.92 ng·min/mL(g)
t0.5λz ([36]; brain, 10 mg/kg i.p., mice): 89.51 min
Cmax [36, 37]: 343 ng/g
MRT [36, 37]: 2.14 h
Tmax [36, 37]: 0.25 h
k el [36, 37]: 0.000128 s⁻¹
Kp ([36]; male, CD-1, mouse, brain/serum, ip, 10 mg/kg): 0.83
AUC [36, 38]: 1030 ng·h/mL
AUC(0-t) [36, 38]: 999 ng·h/mL
CL/F [36, 38]: 160 mL/min/kg
Cmax [36, 38]: 617 ng/mL
MRT [36, 38]: 1.97 h
Tmax [36, 38]: 0.25 h
Vd/F [36, 38]: 23.4 L/kg
k el [36, 38]: 0.000115 s⁻¹
t0.5λz ([36]; serum, 10 mg/kg i.p., mice): 100.15 min

From article PMC12406203 (Journal of Medicinal Chemistry, 2025)
